Results as given in US11214803B2, “Modulators of YAP1 expression” (Ionis Pharmaceuticals, Inc., priority 2019, dated 2022).
Strand notation (5' to 3'): a small letter for the sugar, then the base; units joined by * are phosphorothioate-linked, units joined directly phosphodiester-linked; [ ] holds rarer units or linkages, { } end groups; capitals alone tell only the bases. k = constrained ethyl (cEt); [5mC] = 5-methylcytosine; d = 2'-deoxy (DNA)

tested on: Yap1 mRNA; assay: Antisense inhibition of human Yap1 in A-431 cells by cEt gapmers, single dose (Example 2, RTS4814); format: cell-based; conditions: Table 18; A-431 cells, 5,000 cells per well, free uptake, 2,000 nM modified oligonucleotide, approx. 48 hours; RTS4814; normalized to RIBOGREEN; Yap1 mRNA as percent of untreated control
How it was run: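 A-431 cells (5,000/well) received 2,000 nM oligonucleotide by free uptake for about 48 h. Yap1 mRNA was then quantified by RT-qPCR with primer probe set RTS4814, normalized to RIBOGREEN total RNA, and reported as % of untreated control; asterisked values mark oligos inside the amplicon.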

Row | Substance | YAP1 (% UTC)
1 | 1075332 (kA*kG*k[5mC]*dG*dG*dG*dT*dT*dT*dA*dG*dA*dA*kT*kG*k[5mC]; antisense) [Compound 1075332] | 66 % UTC
2 | 1075364 (k[5mC]*kG*kA*dA*dA*dA*dT*dA*dG*dT*dT*d[5mC]*dT*k[5mC]*kA*kA; antisense) [Compound 1075364] | 59 % UTC
3 | 1075396 (kA*kT*kT*dA*dT*d[5mC]*dG*d[5mC]*dA*d[5mC]*dA*dT*dA*k[5mC]*kA*kT; antisense) [Compound 1075396] | 89 % UTC
4 | 1075428 (antisense kT*kA*kT*dA*dT*dA*dA*dG*dG*d[5mC]*dA*dT*d[5mC]*kT*kT*kG) [Compound 1075428] | 53 % UTC

same assay, conditions: Table 19; A-431 cells, 5,000 cells per well, free uptake, 2,000 nM modified oligonucleotide, approx. 48 hours; RTS4814; normalized to RIBOGREEN; Yap1 mRNA as percent of untreated control

Row | Substance | YAP1 (% UTC)
5 | 1075333 (kA*kG*kT*dT*dA*dA*d[5mC]*dA*dA*dA*dG*d[5mC]*dG*kG*kG*kT; antisense) [Compound 1075333] | 14 % UTC
6 | 1075365 (k[5mC]*kA*k[5mC]*dG*dA*dA*dA*dA*dT*dA*dG*dT*dT*k[5mC]*kT*k[5mC]; antisense) [Compound 1075365] | 11 % UTC
7 | 1075397 (antisense k[5mC]*kA*kT*dT*dA*dT*d[5mC]*dG*d[5mC]*dA*d[5mC]*dA*dT*kA*k[5mC]*kA) [Compound 1075397] | 79 % UTC
8 | 1075429 (antisense k[5mC]*kT*kT*dT*dA*d[5mC]*dT*dA*dT*d[5mC]*dT*dG*dG*kG*kT*k[5mC]) [Compound 1075429] | 23 % UTC

same assay, conditions: Table 20; Yap1 mRNA, percent of untreated control; 3-10-3 cEt gapmers targeting SEQ ID NO.: 1 and 2

Row | Substance | YAP1 (% UTC)
9 | 1075334 (kT*kT*kA*dA*dT*dA*dA*dT*d[5mC]*dT*dA*d[5mC]*d[5mC]*kA*kG*kT; antisense) [Compound 1075334] | 60 % UTC
10 | 1075366 (kA*k[5mC]*kA*d[5mC]*dG*dA*dA*dA*dA*dT*dA*dG*dT*kT*k[5mC]*kT; antisense) [Compound 1075366] | 27 % UTC
11 | 1075398 (antisense kT*kA*kT*dA*dT*dA*dT*dG*dG*d[5mC]*d[5mC]*d[5mC]*dT*kT*kT*kA) [Compound 1075398] | 49 % UTC

same assay, conditions: Table 21; Yap1 mRNA, percent of untreated control; 3-10-3 cEt gapmers targeting SEQ ID NO.: 1 and 2

Row | Substance | YAP1 (% UTC)
12 | 1075335 (k[5mC]*kT*kT*dA*dA*dT*dA*dA*dT*d[5mC]*dT*dA*d[5mC]*k[5mC]*kA*kG; antisense) [Compound 1075335] | 30 % UTC
13 | 1075367 (k[5mC]*kA*kT*dT*dA*d[5mC]*dT*dT*dA*dG*dG*dG*d[5mC]*kT*kT*kA; antisense) [Compound 1075367] | 12 % UTC
14 | 1075399 (antisense k[5mC]*kA*kT*dA*dT*dA*dT*dA*dT*dG*dG*d[5mC]*d[5mC]*k[5mC]*kT*kT) [Compound 1075399] | 15 % UTC

same assay, conditions: Table 22; Yap1 mRNA as percent of untreated control; 3-10-3 cEt gapmers; single dose

Row | Substance | YAP1 (% UTC)
15 | 1075336 (kG*k[5mC]*kT*dT*dA*dA*dT*dA*dA*dT*d[5mC]*dT*dA*k[5mC]*k[5mC]*kA; antisense) [Compound 1075336] | 32 % UTC
16 | 1075368 (kG*kA*kG*dA*dA*dT*dA*dA*dG*d[5mC]*dA*dA*dT*k[5mC]*kA*kG; antisense) [Compound 1075368] | 24 % UTC
17 | 1075400 (antisense kT*kA*kG*d[5mC]*dA*dA*dT*dA*dG*dT*d[5mC]*dA*dG*kG*kT*kA) [Compound 1075400] | 11 % UTC

same assay, conditions: Table 23; Yap1 mRNA as percent of untreated control; 3-10-3 cEt gapmers; single dose

Row | Substance | YAP1 (% UTC)
18 | 1075305 (kA*kA*kA*d[5mC]*dG*dA*dA*dA*d[5mC]*dA*d[5mC]*dG*dG*kG*kT*kA; antisense) [Compound 1075305] | 66 % UTC
19 | 1075337 (kG*k[5mC]*kT*dT*dA*dT*dA*dT*d[5mC]*d[5mC]*dT*dG*dT*kA*kA*k[5mC]; antisense) [Compound 1075337] | 48 % UTC
20 | 1075369 (kG*kG*kA*dG*dA*dA*dT*dA*dA*dG*d[5mC]*dA*dA*kT*k[5mC]*kA; antisense) [Compound 1075369] | 31 % UTC
21 | 1075401 (antisense k[5mC]*kG*kA*dT*dT*dA*dA*dA*dA*d[5mC]*dA*d[5mC]*dT*kG*kG*kT) [Compound 1075401] | 3 % UTC

same assay, conditions: Table 24; Yap1 mRNA as percent of untreated control; 3-10-3 cEt gapmers targeting SEQ ID NO.: 1, and 2

Row | Substance | YAP1 (% UTC)
22 | 1075306 (kT*kA*kA*dA*d[5mC]*dG*dA*dA*dA*d[5mC]*dA*d[5mC]*dG*kG*kG*kT; antisense) [Compound 1075306] | 30 % UTC
23 | 1075338 (k[5mC]*k[5mC]*k[5mC]*dA*dA*dA*dA*dA*d[5mC]*dT*dA*dG*d[5mC]*kT*kT*kA; antisense) [Compound 1075338] | 56 % UTC
24 | 1075370 (k[5mC]*kT*kT*dA*d[5mC]*dG*dA*dA*dT*d[5mC]*dA*d[5mC]*dA*kT*kA*kT; antisense) [Compound 1075370] | 32 % UTC
25 | 1075402 (antisense kG*kA*kG*d[5mC]*dA*dA*d[5mC]*dA*d[5mC]*dA*dA*dG*d[5mC]*kA*kT*kA) [Compound 1075402] | 45 % UTC

same assay, conditions: Table 25; Yap1 mRNA as percent of untreated control; 3-10-3 cEt gapmers targeting SEQ ID NO.: 1, and 2

Row | Substance | YAP1 (% UTC)
26 | 1075307 (kA*kT*kT*dA*dA*dA*d[5mC]*dG*dA*dA*dA*d[5mC]*dA*k[5mC]*kG*kG; antisense) [Compound 1075307] | 28 % UTC
27 | 1075339 (kA*k[5mC]*k[5mC]*d[5mC]*dA*dA*dA*dA*dA*d[5mC]*dT*dA*dG*k[5mC]*kT*kT; antisense) [Compound 1075339] | 70 % UTC
28 | 1075371 (k[5mC]*kT*kG*d[5mC]*dA*dA*dA*dA*dG*dT*dT*d[5mC]*dT*kT*kA*k[5mC]; antisense) [Compound 1075371] | 90 % UTC
29 | 1075403 (antisense k[5mC]*kT*kT*dA*dA*dT*d[5mC]*dA*dG*dG*dT*dA*d[5mC]*kT*kA*kT) [Compound 1075403] | 18 % UTC

same assay, conditions: Table 32; Yap1 mRNA, percent of untreated control; 3-10-3 cEt gapmers targeting SEQ ID NO.: 1, and 2

Row | Substance | YAP1 (% UTC)
30 | 1075314 (antisense kA*kA*kT*dA*dA*dA*dG*dT*d[5mC]*dT*dA*dA*dT*k[5mC]*k[5mC]*kA) [compound 1075314] | 54 % UTC
31 | 1075346 (antisense kG*kT*kA*dA*dG*dT*dA*dA*dA*dA*d[5mC]*dT*dG*k[5mC]*kT*kG) [compound 1075346] | 16 % UTC
32 | 1075378 (antisense kA*kA*kA*dA*d[5mC]*dT*dA*dA*dT*d[5mC]*dA*dT*d[5mC]*kG*kA*kT) [compound 1075378] | 83 % UTC
33 | 1075410 (antisense kG*kA*kT*dT*dA*dA*d[5mC]*dA*dG*d[5mC]*d[5mC]*d[5mC]*dT*kT*kT*kA) [compound 1075410] | 36 % UTC

same assay, conditions: Table 33; Yap1 mRNA, percent of untreated control; 3-10-3 cEt gapmers targeting SEQ ID NO.: 1, and 2

Row | Substance | YAP1 (% UTC)
34 | 1075315 (antisense k[5mC]*kA*kT*dA*dA*d[5mC]*dT*dT*dG*dA*dT*dG*dA*k[5mC]*kT*k[5mC]) [compound 1075315] | 27 % UTC
35 | 1075347 (antisense k[5mC]*kA*kT*dA*dG*dG*dT*dA*dG*dG*d[5mC]*dA*dA*k[5mC]*kA*kA) [compound 1075347] | 20 % UTC
36 | 1075379 (antisense kT*kA*k[5mC]*d[5mC]*dA*dA*dA*dA*d[5mC]*dT*dA*d[5mC]*dA*kA*k[5mC]*k[5mC]) [compound 1075379] | 75 % UTC
37 | 1075411 (antisense k[5mC]*kA*kA*dA*dA*dA*dG*dG*dG*dT*dA*dA*dG*kG*k[5mC]*kA) [compound 1075411] | 39 % UTC

same assay, conditions: Yap1 mRNA as percent of untreated control; A-431 cells; 3-10-3 cEt gapmers targeting SEQ ID NO.: 1, and 2; Table 30

Row | Substance | YAP1 (% UTC)
38 | 1075312 (antisense kT*kT*kA*dA*dT*dT*dG*dA*dA*d[5mC]*dT*d[5mC]*dA*kG*kG*kG) [compound 1075312] | 37 % UTC
39 | 1075344 (antisense kT*kA*kA*d[5mC]*dT*dA*dA*dA*dA*dG*dG*dG*dA*kG*kT*kA) [compound 1075344] | 91 % UTC
40 | 1075376 (antisense k[5mC]*k[5mC]*kT*dA*dA*dA*dT*dA*dT*d[5mC]*dA*dA*d[5mC]*kT*k[5mC]*k[5mC]) [compound 1075376] | 72 % UTC
41 | 1075408 (antisense k[5mC]*kT*kA*dA*dA*dA*dT*dG*dG*d[5mC]*dA*dT*dA*kA*kG*kG) [compound 1075408] | 23 % UTC

same assay, conditions: Yap1 mRNA as percent of untreated control; A-431 cells; 3-10-3 cEt gapmers targeting SEQ ID NO.: 1, and 2; Table 31

Row | Substance | YAP1 (% UTC)
42 | 1075313 (antisense k[5mC]*kT*kT*dA*dA*dT*dT*dG*dA*dA*d[5mC]*dT*d[5mC]*kA*kG*kG) [compound 1075313] | 28 % UTC
43 | 1075345 (antisense kG*kT*kA*dA*d[5mC]*dT*dA*dA*dA*dA*dG*dG*dG*kA*kG*kT) [compound 1075345] | 29 % UTC
44 | 1075377 (antisense k[5mC]*kT*kA*dG*dA*dA*dA*dG*dG*dT*dT*dG*dG*k[5mC]*k[5mC]*k[5mC]) [compound 1075377] | 108 % UTC
45 | 1075409 (antisense k[5mC]*kT*kT*dT*dA*dA*dA*dT*dA*dG*d[5mC]*dA*dG*kA*kG*kG) [compound 1075409] | 22 % UTC
